Test results as given in US10479752B2, “Deuterated tetramethyl dioic acids, compositions comprising them and uses thereof” (SYNDROMEX LTD., priority 2011, dated 2019).

Columns and labels:
[1] = Comparative oral bioavailability / pharmacokinetic study, single intravenous and oral administration; assay type: in vivo; details: rat; for C0 / t1/2 / AUCinf / Cmax / tmax: Mean CV (%); for F (oral bioavailability): 50 mg/kg po vs 5 mg/kg iv, Mean (CV %); for tmax of the individual treated rats: oral administration 50 mg/kg, post-dose
Description: The pharmacokinetic properties and the oral bioavailability were investigated for the following comparative compounds:
The plasma concentrations of the test items were measured by LC/MS/MS method following single intravenous and oral administration at the doses of 5 mg/kg body weight and 50 mg/kg body weight, respectively. Following intravenous administration small inter-individual variability was observed. Following i.v administration, the highest plasma concentrations were measured at the first sampling time-point (5 minutes) followed by a biphasic continuous decrease. […] The peak concentrations, tmax and the apparent terminal elimination half-lives (t1/2) were the followings:
The vehicle for oral administration was prepared in advance. Preparation: 1 g of carboxymethylcellulose sodium salt was dissolved in 100 ml of Humaqua. The vehicle was prepared at least 2 days prior to formulation of the test items. The vehicle was stored in a refrigerator when not in use.
The required amount of test item was weighed on an analytical balance, transferred into a suitable vial. The test item was dissolved in the required volume of N,N-dimethylacetamide (40% of the final volume). Dissolution of the test item was facilitated by gentle mixing by vortex. The solution was diluted with the suitable volume of PEG400 (40% of the final volume) then Salsol A (20% of the final volume). The final concentration of the test item in the solution was 5 mg/ml. The formulations were prepared freshly on the day of administration.
The required amount of test item was weighed on an analytical balance, transferred into a test tube and mixed with the suitable volume of 1% CMC to achieve the final concentration of 25 mg/ml. The suspension was sonicated twice in bath sonicator for 30 min at 40 C (each round), and left overnight at room temperature. On the following day, the suspension was sonicated again (bath sonicator, 30 min, 40° C.) and further homogenized in a glass/glass homogenizer trying to reaching an homogenous suspension. In spite of the above procedure the quality (homogeneity) of the suspension was not perfect. The suspension was stored at room temperature till administration.
Species/Strain rat/Wistar (Crl:(WI)BR rats)
Number of animals: 24 males (at least 32 for cannulation*)
After the acclimatization period, rats were equipped with a jugular vein cannula under isoflurane anesthesia. The following day the animals were used for the study. In the morning the rats were checked for health status and blood sampling before assigning them into the experimental group.
The terminal elimination phase was defined on the basis of the last 3-5 measured concentration except rat A4. […] The central volume of distribution (Vc: […]) was approximately equal to the total blood volume. The volume of distribution estimated for the steady state situation (Vss: 97.3-143 ml/kg) remained also small compared to the total extracellular fluid volume (˜300 ml/kg). The clearance was also very small for all experimental compound analogues. The smallest clearance was obtained for Compound 7: 23.2 ml/h/kg.

[2] = Chemical and isotopic stability as solutions in DMSO/phosphate buffered saline over 48 hours; details: for chemical purity (HPLC area percent) with respect to related substances: all samples through the study; for analyte recovered, yield: summary over the study; for disenrichment of the product (isotopic stability): throughout the time period of the study
Description: A 1 mg/mL stock solution (˜55 mL) of deuterated compound in DMSO was prepared. A measured volume of stock (7.5 mL) was dispensed in to each of seven vials. To each vial was added a measured volume of PBS (aq) (3.0 mL), and each vial was agitated to mix. The vials were then placed in a thermostatically-controlled oven set to 37° C. At each time-point (0 h, 2 h, 4 h, 24 h, 48 h) a vial was drawn from the oven. To the vial was added MTBE (9.0 mL), and the mixture was stirred vigorously for 5 min. The layers were separated, and the MTBE layer was agitated with DI water (3.75 mL) for 1 min. The layers were separated. The MTBE layer was dried with MgSO4 for >1 h, and then filtered through a PTFE syringe filter into a tared vial. The solution was concentrated in vacuo to a solid residue, and the mass of the residue was calculated and recorded. To the residue a measured volume of MeOH was added to make (theoretically) a 2.5 mg/mL solution. In this case, 3.00 mL MeOH was added to each vial which theoretically contained 7.5 mg of compound. The content of each solution was measured by quantitative HPLC analysis (by comparison to a standard of known concentration). The MeOH solutions were then recovered, concentrated in vacuo to a solid, and then analyzed by GCMS to determine isotopic enrichment as the methyl ester derivatives.

Male db/db Mouse Model = assay: Comparative in vivo efficacy study, 3 h-fasting blood glucose; details: db/db mice
Description: Male db/db Mouse Model. Age of animal at start of treatment: 10-11 weeks. Animals per treatment group: 6-7 mice per each group.
Vehicle control: (1% CMC in water).
Positive control: Rosiglitazone, 25 mg/kg.
Group I: Compound 7″, 12.5 mg/kg.
Group II: Compound 7″, 25 mg/kg. […]
Group IV: Compound 7, 25 mg/kg.
Duration of treatment: 15 days.
1. Dosing: Animals are 10-11 weeks of age and were allowed to acclimate 1-2 weeks. After acclimation, animals were entered to the study and were […] daily for a duration of 15 days.
2. Formulation: compounds were formulated with […]. Formulation also involve sonication and vortexing before use.
4. Fasting Glucose Levels: 3 h-Fasting glucose levels were measured on tail blood of all the animals on days 0, 6, 12, and 16 (not shown) of the study using glucose sticks (Proforma).

[3] = DMSO/PBS solution, 37° C., 24 h
[4] = DMSO/PBS solution, 37° C., 48 h
[5] = Original Sample (before the stability study)

Structure (SMILES)	C0 ([1]; 5 mg/kg iv dose)	t1/2 ([1]; 5 mg/kg iv dose)	AUCinf ([1]; 5 mg/kg iv)	Cmax ([1]; 50 mg/kg po dose)	t1/2 ([1]; 50 mg/kg po dose)	tmax ([1]; 50 mg/kg po dose)	F (oral bioavailability) [1]	AUCinf ([1]; 50 mg/kg po)	tmax of the individual treated rats [1] [h]	GC/MS IE (isotopic enrichment) ([2]; DMSO/PBS solution, 37° C., 0 h) [%]	HPLC Area Percentage ([2]; DMSO/PBS solution, 37° C., 0 h) [%]	HPLC Assay ([2]; DMSO/PBS solution, 37° C., 0 h) [%]	GC/MS IE (isotopic enrichment) ([2]; DMSO/PBS solution, 37° C., 2 h) [%]	HPLC Area Percentage ([2]; DMSO/PBS solution, 37° C., 2 h) [%]	HPLC Assay ([2]; DMSO/PBS solution, 37° C., 2 h) [%]	GC/MS IE (isotopic enrichment) ([2]; DMSO/PBS solution, 37° C., 4 h) [%]	HPLC Area Percentage ([2]; DMSO/PBS solution, 37° C., 4 h) [%]	HPLC Assay ([2]; DMSO/PBS solution, 37° C., 4 h) [%]	GC/MS IE (isotopic enrichment) [2, 3] [%]	HPLC Area Percentage [2, 3] [%]	also measured
[2H]C([2H])([2H])C(CCCCCCCCCCC(C([2H])([2H])[2H])(C([2H])([2H])[2H])C([2H])([2H])C(=O)O)(C([2H])([2H])[2H])C([2H])([2H])C(=O)O [Compound 1, 3,3,14,14-[D16]Tetramethyl-1,16-hexadecanedoic acid]	67.0 (8.8%) μg/ml	2.81 (28.5%) h	137 (19.3%) h * μg/ml	114 (19.6%) μg/ml	4.29 (15.7%) h	4 (0%) h	91.0 (11.1) %	1246 (11.1%) h * μg/ml	4	98.3	98.1	66.5	98.2	97.2	64.5	98.2	97.8	70.1	98.3	97.6	HPLC Assay [2, 3]: 89.3%; GC/MS IE (isotopic enrichment) [2, 4]: 98.3%; HPLC Area Percentage [2, 4]: 97.5%; HPLC Assay [2, 4]: 86.3%; chemical purity (HPLC area percent) with respect to related substances ([2]; DMSO/PBS solution, 37° C.): around 97%; analyte recovered, yield ([2]; DMSO/PBS solution, 37° C.): over 90%; disenrichment of the product (isotopic stability) ([2]; DMSO/PBS solution, 37° C.): No disenrichment; GC/MS IE (isotopic enrichment) [2, 5]: 98.3%; HPLC Area Percentage [2, 5]: 100.0%
[2H]C([2H])([2H])C(CCCCCCCCCCCCC(C(=O)O)(C([2H])([2H])[2H])C([2H])([2H])[2H])(C(=O)O)C([2H])([2H])[2H] [Compound 7, 2,2,15,15-Tetramethyl(D12)-hexadecanedioic acid]	64.3 (16.9%) μg/ml	2.14 (2.6%) h	218 (14.9%) h * μg/ml	151 (29.0%) μg/ml	6.64 (50.3%) h	4 (0%) h	102 (36.8) %	2221 (36.8%) h * μg/ml	4	99.9	96.8	89.4	99.9	95.4	101.6	99.9	95.8	91.6	99.9	96.9	efficacy on 3 h-fasting blood glucose, in words (Male db/db Mouse Model; Group III (Compound 7, 25 mg dose) compared with Groups I and II (Compound 7″)): exceeds that of both treatment Groups I and II; glucose level reached (normalized plasma levels) (Male db/db Mouse Model; Group IV (Compound 7, 25 mg)): less than 110 mg %; efficacy on 3 h-fasting blood glucose, in words (Male db/db Mouse Model; Group IV (Compound 7, 25 mg), days 0, 6, 12, compared with Rosiglitazone 25 mg/kg): greater efficacy as compared with Rosiglitazone; mean residence time ([1]; intravenous administration): 4.2 h; clearance ([1]; iv administration): 0.387 mL/min/kg; mean residence time ([1]; oral administration): 11.8 h; HPLC Assay [2, 3]: 92.3%; GC/MS IE (isotopic enrichment) [2, 4]: 99.9%; HPLC Area Percentage [2, 4]: 96.7%; HPLC Assay [2, 4]: 82.2%; chemical purity (HPLC area percent) with respect to related substances ([2]; DMSO/PBS solution, 37° C.): around 96%; analyte recovered, yield ([2]; DMSO/PBS solution, 37° C.): approximately 90%; disenrichment of the product (isotopic stability) ([2]; DMSO/PBS solution, 37° C.): No disenrichment; GC/MS IE (isotopic enrichment) [2, 5]: 99.9%; HPLC Area Percentage [2, 5]: 99.5%
